Data on one substance can be found in patent US9062095B2, “Mutant double cyclized receptor peptides inhibiting β1-adrenoceptor antibodies” (JULIUS-MAXIMILIANS-UNIVERSTITAT-WURZBURG, priority 2007, dated 2015).

For the experiment, the system named is anti-β1-ECII antibodies. The experiment in a line: ELISA-competition assay: peptide preincubated with sera/IgG of immunized antibody-positive rats, linear 25AA Cys/Cys-peptide as antigen. Type of experiment: binding, rat. The conditions noted are these: for decrease in circulating free anti-beta1-ECII antibodies: n=6 sera (FIG. 11). The procedure, abridged: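 Rat sera or IgG fractions from immunized anti-β1-ECII antibody-positive rats preincubated 12 h at 4° C (rotating) with linear or cyclic β1-ECII peptides at fold molar excess (1:1 peptide:IgG assumed). Residual binding measured by ELISA on linear 25AA Cys/Cys-peptide antigen, given as % blocked versus non-blocked reactivity.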

Positions of bridges follow the written chain, without caps; N, C: chain ends.

Take “Cyclo-Ala-Asp-Glu-Ala-Arg-Arg-Cys-Tyr-Asn-Asp-Pro-Lys-Cys-Ser-Asp-Phe-Val-Gln (cyclo(ADEARRCYNDPKCSDFVQ); disulfide 7-13; SMILES CC(C)[C@@H]1NC(=O)[C@H](Cc2ccccc2)NC(=O)[C@H](CC(=O)O)NC(=O)[C@H](CO)NC(=O)[C@@H]2CSSC[C@H](NC(=O)[C@H](CCCNC(=N)N)NC(=O)[C@H](CCCNC(=N)N)NC(=O)[C@H](C)NC(=O)[C@H](CCC(=O)O)NC(=O)[C@H](CC(=O)O)NC(=O)[C@H](C)NC(=O)[C@H](CCC(N)=O)NC1=O)C(=O)N[C@@H](Cc1ccc(O)cc1)C(=O)N[C@@H](CC(N)=O)C(=O)N[C@@H](CC(=O)O)C(=O)N1CCC[C@H]1C(=O)N[C@@H](CCCCN)C(=O)N2) [18AA Cys/Ser mutant (Gln-)cyclopeptide, disulphide bond Cys7-Cys13, ring closure Ala1-Gln18]”: the “decrease in circulating free anti-beta1-ECII antibodies” value reads like this: (8-fold molar excess of peptide) 53%; (20-fold molar excess of peptide) 66%; (80-fold molar excess of peptide) “about 85%”. Moreover, the “blocking-efficiency versus unblocked sera” value (n=6 sera, incubation 12-14 h, 4° C., mean ±SEM (FIG. 27)) was determined as 60.0±8.3%. Also, the “fraction of rat sera blocked by the peptide” value (n=69 sera, (Gln-)cyclopeptide mutants (FIG. 10), Cys/Ser = blocked by it alone (n=64), Ser/Cys = sera blocked by both (n=5)) is “About 93%”. Moreover, the “blocking efficiency (% of blocked versus non-blocked ELISA reactivity)” value (type1 sera (93%, n=64 of 69), FIG. 9 upper panel, ±SEM) is listed as 68±3%. In addition, the “blocking capacity (% of blocked versus non-blocked ELISA reactivity)” value (type 2 sera (7%, n=5 of 69), FIG. 9 lower panel, ±SEM) worked out at 50±8%.
